# Test results as given in PubChem BioAssay (NCI).
# Several values for one entry are separate records, joined by “and”; a condition that tells them apart may be missing. Identical values can stand only once.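 Interpolation was linear, between the two tested concentrations surrounding the appropriate level; five concentrations were tested over 48 hours in 96-well plates. At the GI50, growth is halved. TGI: total growth inhibition.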
# Legend:
# Assay in all cases: DTP human tumour cell line panel, 48 h
# 786-0 renal = test system: 786-0 renal
# HOP-62 NSCLC = test system: HOP-62 NSCLC
# HT29 colon = test system: HT29 colon
# MALME-3M melanoma = test system: MALME-3M melanoma
# OVCAR-4 ovarian = test system: OVCAR-4 ovarian
# RPMI-8226 leukemia = test system: RPMI-8226 leukemia
# SNB-19 CNS = test system: SNB-19 CNS
# TK-10 renal = test system: TK-10 renal
Compound,GI50 (786-0 renal),TGI (786-0 renal),GI50 (HOP-62 NSCLC),TGI (HOP-62 NSCLC),GI50 (HT29 colon),TGI (HT29 colon),GI50 (MALME-3M melanoma),TGI (MALME-3M melanoma),GI50 (OVCAR-4 ovarian),TGI (OVCAR-4 ovarian),GI50 (RPMI-8226 leukemia),TGI (RPMI-8226 leukemia),GI50 (SNB-19 CNS),TGI (SNB-19 CNS),GI50 (TK-10 renal),TGI (TK-10 renal)
COc1ccccc1/C=N\N=C(N/N=C/c1ccccc1OC)N/N=C/c1ccccc1OC,3.25 µM,67.2 µM,2.91 µM,13.4 µM,3.87 µM,> 100 µM,3.73 µM,20.8 µM,3.43 µM,> 100 µM,2.96 µM,12.3 µM,3.37 µM,> 100 µM,6.01 µM,> 100 µM
CO[C@@H]1/C=C(C)/C=C/[C@@H](C)/C=C(\C)C(=O)OC(/C(C)=C/C=C(\C)CNC(=O)[C@H](CO)NC=O)[C@@H](C)/C=C/C=C/[C@H](OC)CC/C=C(C)/C=C/C1 (stereo partly specified),< 0.005 µM,0.322 µM,< 0.005 µM,< 0.005 µM,< 0.005 µM,> 50 µM,0.0101 µM,0.0261 µM,< 0.005 µM,> 50 µM,< 0.005 µM,11.8 µM,0.303 µM,9.12 µM,< 0.005 µM,0.236 µM
O=C(c1ccco1)c1c(C(F)(F)F)n([O-])c2ccccc2[n+]1=O,0.42 µM,1.83 µM,0.949 µM,4.34 µM,4.2 µM,50 µM,1.68 µM,8.02 µM,5.45 µM,15.4 µM,0.227 µM,1.27 µM,3.34 µM,22.3 µM,1.49 µM,6.7 µM
O=Nc1ccc2ccccc2c1O,18.4 µM,32.8 µM,,,3.46 µM,13.4 µM,3.39 µM,8.51 µM,1.89 µM,5.32 µM,5.69 µM,31.1 µM,15 µM,28.4 µM,11.8 µM,24.5 µM
COc1ccc2c(c1)C(c1ccccc1Cl)=Nc1c(n[nH]c1C)N2,> 18.6 µM,> 25 µM,> 25 µM,> 25 µM,> 18.7 µM,> 25 µM,> 25 µM,> 25 µM,> 25 µM,> 25 µM,> 25 µM,> 25 µM,> 25 µM,> 25 µM,> 25 µM,> 25 µM
COC(=O)[C@]12CC[C@@H](C)[C@H](C)[C@@H]1C1=CC[C@@H]3[C@@]4(C)C=C(O)C(=O)[C@@]5(C)COC(=C54)C[C@@]3(C)[C@]1(C)CC2,13.9 µM,29.7 µM,15.4 µM,35 µM,10.5 µM,25.9 µM,15 µM,32.4 µM,8.32 µM,23.5 µM,5.57 µM,29.7 µM,15.8 µM,37.9 µM,12.5 µM,29.8 µM
Cc1cc(Nc2ncnc3ccc(NC4=NC(C)(C)CO4)cc23)ccc1Oc1ccn2ncnc2c1,20.1 µM and > 10 µM,> 81.5 µM,17.6 µM and > 10 µM,45.7 µM and > 10 µM,14.4 µM and > 10 µM,38.7 µM and > 10 µM,14.7 µM and > 10 µM,35.7 µM and > 10 µM,15.1 µM and > 10 µM,99 µM and > 10 µM,9.87 µM and 6.82 µM,33.5 µM and > 10 µM,21.9 µM and > 10 µM,> 100 µM,3.84 µM and 2.76 µM,25.1 µM and > 10 µM
CC(=O)OC1CC2(O)C3CCC4CC(O)CCC4(C)C3CCC2(C)C1C1=CC(=O)OC1 (stereo unspecified),,0.107 µM,,0.178 µM,,0.779 µM,,0.111 µM,,0.19 µM,,0.445 µM,,1.25 µM,,0.489 µM
N#CC1=C(N)NC(=O)NC12Nc1ccccc1S2 (stereo unspecified),19.4 µM,49.6 µM,23.1 µM,56.7 µM,36.7 µM,> 100 µM,4.63 µM,42.5 µM,43.4 µM,> 100 µM,> 37 µM,> 55.7 µM,44.5 µM,> 100 µM,26.1 µM,66 µM
Cn1cc(-c2cnc3ccc4ccc(CS(=O)(=O)NCc5ccccn5)cc4c(=O)c3c2)cn1,27 µM,> 100 µM,17.6 µM,> 100 µM,15.1 µM,> 100 µM,21.3 µM,73.1 µM,10.3 µM,68.1 µM,11.6 µM,> 75.2 µM,26.6 µM,> 100 µM,21.6 µM,> 83.1 µM
O=C(Cc1cccc(OC(F)(F)F)c1)Nc1ccc(CCCCc2nnc(NC(=O)Cc3ccccn3)s2)nn1,11.4 µM,27.5 µM,,,24.3 µM,96.7 µM,28.6 µM,> 100 µM,7.23 µM,29 µM,0.452 µM,32.3 µM,29.4 µM,> 100 µM,11.7 µM,24.5 µM
C=CC(=O)N[C@H]1CCOC[C@H]1Nc1ncc2cc(-c3c(Cl)c(OC)cc(OC)c3Cl)ccc2n1,17.5 µM,> 100 µM,43 µM,> 100 µM,13.2 µM,> 100 µM,13.1 µM,64 µM,6.05 µM,> 100 µM,9.04 µM,61.5 µM,26.5 µM,> 100 µM,31.8 µM,> 100 µM
COc1cccc2c1C(=O)c1c(O)c3c(c(O)c1C2=O)C[C@@](O)(C(=O)CO)C[C@@H]3OC1C[C@H](N)[C@H](O)[C@H](C)O1 (stereo partly specified),0.0324 µM,1.19 µM,0.033 µM,0.323 µM,0.0958 µM,,0.0462 µM,0.145 µM,0.133 µM,2.9 µM,0.0909 µM,1.28 µM,0.0246 µM,6.33 µM,0.177 µM,
Cc1ccc(SC2=CC(=O)c3nc4ccccc4c4ccnc2c34)cc1,24.5 µM,> 58.1 µM,97.9 µM,> 100 µM,38 µM,> 100 µM,46.7 µM,> 69.5 µM,17.4 µM,32.6 µM,30.1 µM,> 100 µM,> 71.2 µM,> 100 µM,53.6 µM,> 100 µM
NC1=NC(c2ccc(Cl)cc2)C2=C(N1)/C(=C/c1ccc(Cl)cc1)CCC2 (stereo unspecified),9.42 µM,29.7 µM,15 µM,53 µM,3.14 µM,9.78 µM,19.4 µM,50.8 µM,13.9 µM,76.5 µM,2.36 µM,6.15 µM,19.8 µM,99.3 µM,27.4 µM,86.8 µM
